System: target antigen-expressing cell line
Assay: Jurkat NFAT-GFP assay, coculture with target cell lines expressing the respective target antigen (summary Table 10A)
Type: cell-based, human
Design: key: The signs +/−, +, 2+ etc. after the name of the cell lines indicate the relative degree of positivity on the Jurkat-NFAT-GFP assay as measured by the % GFP positive cells; +: relative degree of positivity on the Jurkat-NFAT-GFP assay as measured by the % GFP positive cells; 2+: relative degree of positivity on the Jurkat-NFAT-GFP assay as measured by the % GFP positive cells
Conditions: relative % GFP positive cells; for NFAT-GFP ASSAY Positive Cell lines: NALM6: SIR-expressing Jurkat-NFAT-GFP cells cocultured with NALM6
Protocol: (B) Induction of NFAT promoter driven GFP expression. The control vector- and SIR-expressing Jurkat-NFAT-GFP cocultured for 4-24 hours with the target antigen-expressing cell line (described above) and their ability to bind to the target antigen is assayed by measuring induction of GFP expression using Flow Cytometry. Cellular supernatant is collected and assayed for the induction of cytokines (e.g., IL2).
Jurkat NFAT-GFP Assay For Synthetic Immune Receptors. The Jurkat-NFAT-GFP cells are engineered in such a way that the IL-2 promoter, which carries NFAT binding sites, is cloned upstream of the GFP gene. These cells have been used to study signaling via TCR and CAR. The different SIRs were stably expressed in Jurkat NFAT-GFP cells by lentiviral mediated gene transfer, followed by selection with puromycin. The SIR-expressing Jurkat-NFAT-GFP cells were cocultured with the target cells at E:T ratio of approximately 1:2 for approximately 4 hours to 18 hours. When the interaction between SIRs and their target antigen results in activation of the NFAT pathway, GFP expression is induced.
Induction of GFP expression by coculturing of Jurkat-NFAT-GFP cells expressing different SIR constructs and the different target cells was studied essentially as described previously (Wu, Roybal, Puchner, Onuffer, & Lim, 2015). GFP expression was monitored by FACS analysis. A few representative examples of this assay are shown in the FIG. 13A-B. In panel A, control Jurkat-NFAT-GFP cells or those expressing SIRs targeting CD19 (clone ID 051716-I08), MPL (Clone ID: 040716-A07) and BCMA (Clone ID: 011116-A07) were incubated with RAJI (top), HEL (middle) or U266 (bottom) cells, respectively. […] In panel B, Jurkat cells expressing SIR targeting CDH6 (Clone ID: 051716-J05), CD276 (Clone ID: 050516-Q06) and Her2/neu (Clone ID: 050516-I03) were incubated with SKOV3 (top) and […] (middle and bottom) cells, respectively. […] The Jurkat-NFAT-GFP cells were engineered to express different SIRs targeting other antigens and the experiment repeated upon coculture with the target cells expressing their respective target antigen. The Jurkat-NFAT-GFP (parental) cells were used as control. The names of different SIRs, their SEQ ID NOs, component antigen binding domains and TCR chains can be determined by reference to Tables 7A-7H. A SIR is considered positive in the assay in case the SIR expressing Jurkat-NFAT-GFP cells show greater % GFP positive cells when cultured with the target cell line as compared to parental Jurkat-NFAT-GFP cells. […] The signs +/−, +, 2+ etc. after the name of the cell lines indicate the relative degree of positivity on the Jurkat-NFAT-GFP assay as measured by the % GFP positive cells after culture of the SIR expressing Jurkat-NFAT-GFP cells with that cell line. […] In addition, great diversity of response against the same target cell line is observed with Jurkat cells expressing SIRs containing different antigen binding domains targeting the same antigen (e.g., SIRs having antigen binding domains derived form different CD19 antibodies) even when the SIRs share the same TCR chains and linkers. Finally, Jurkat cells expressing SIRs targeting different antigens (e.g. CD19 vs CD20) show a diversitiy of response when exposed to the same target cell line. Thus, a diverse immune response can be generated against a single target cell by combining SIRs with different TCR chains, linkers, antigen binding domains and target specificity. Table 10A also summarizes the results of GLuc based T cell cytotoxicity assay observed with different SIRs when exposed to their target cell lines. […]

CD8SP-CD19Bu12-vL-V5-[TCRb-S57C-opt1]-F-P2A-SP-CD19Bu12-vH-Myc-[TCRa-T48C-opt1]-F-F2A-PAC [SEQ ID NO:1021]
NFAT-GFP ASSAY Positive Cell lines: NALM6: (2+)

CD8SP-FMC63-vL-V5-[TCRb-S57C-opt1]-F-P2A-SP-FMC63-vH-Myc-[TCRa-T48C-opt1]-F-F2A-PAC [SEQ ID NO:900]
NFAT-GFP ASSAY Positive Cell lines: NALM6: RAJI(2+), NALM6(2+) | NFAT-GFP ASSAY Positive Cell lines: RAJI (SIR-expressing Jurkat-NFAT-GFP cells cocultured with RAJI): RAJI(2+), NALM6(2+)

Reference: patent publication US12269859B2, “Synthetic immune receptors and methods of use thereof” (Angeles Therapeutics, Inc., priority 2016, dated 2025)
